Values joined by “and” are separate entries in the source; they are usually repeats but may differ in a detail not shown here. Equal values may be shown once.
Experiments:
[1] = Florfenicol residue in muscle of coho salmon after treatment (Table 1); format: in vivo; design: florfenicol (residue): unit not given here; conditions: for florfenicol (residue): florfenicol 20 mg/kg
Procedure: Florfenicol (“FF”) was administered at a dose of 20 mg/kg at 15 days and at 30 days before harvesting. Andrographolide and seaweed powder were mixed with conventional fish feed at a dose of 1.056 kg seaweed powder and 0.044 kg andrographolide (“NATCONTROL”) per ton of feed. The NORMAL group corresponds to fish fed antibiotic without andrographolide.
So the farmer can treat with antibiotic closer to harvest, and harvested fish have far less antibiotic residue in their meat. […] This enables one to use a smaller dose of antibiotic to achieve the same effect. The residues of florfenicol at various days post-treatment indicate a more-rapid metabolization of florfenicol in fish muscle receiving andrographolide (<24 or not detected).

[2] = Plasma concentration of florfenicol over time; format: in vivo, coho salmon
Text: FIG. 3. Plasma concentration of florfenicol over time: distribution of levels of plasma florfenicol. Y axis=Florfenicol plasma concentration (g/L). X axis=time (t=0, 5 days and 12 days). For each of the three days reported, the left bar is for fish treated with florfenicol alone, the right bar is for fish treated with florfenicol and also fed andrographolide.
(§1) Odd-numbered cages received feed medicated with both florfenicol and with andrographolide (0.044 kg andrographolide per ton of feed) for 15 days. Even-numbered cages received feed medicated with only florfenicol. X Axis=day; Y axis (left)=accumulated mortality; Y axis (right)=periodic mortality. For each period, the left bar is florfenicol alone, the right bar is florfenicol and andrographolide. For cumulative mortality, the upper line (at date #5) is florfenicol alone, the lower line is florfenicol and andrographolide.

coho salmon [3] = assay: Mortality and cause of death in coho salmon; format: in vivo
Text: FIG. 4 measures accumulated mortality over 14 days for coho salmon treated with florfenicol alone and combined with andrographolide.
as §1
In addition, it changes the causes of mortality. Table 2 compares the cause of death for the two groups.

P. salmonis = assay: Minimum inhibitory concentration of florfenicol on P. salmonis in infected SHK-1 cells; format: cell-based
Procedure: FIGS. 1 and 2. Cytotoxicity of andrographolide sodium bisulfite (PubChem CID: 133555830, “AP1”) and andrographolide sulphonate (PubChem CID: 72191954, “AP2”) in combination with florfenicol in SHK-1 cells treated and infected with P. salmonis. Cells were treated with AP1 (FIG. 1) and AP2 (FIG. 2) at 4.6 and 9 ng/mL and florfenicol in the range of 0,125; 0,250; 0.5 and […]. LDH analysis was done day 12 post-infection. Cells+Ps, cells infected without treatment; Vehicle+Ps, cells infected and treated with ethanol. “Flo sin AP” means florfenicol without an andrographolide; “Flo+AP” means florfenicol with an andrographolide. The percentage of cytotoxicity was calculated with respect to the control of total lysis of cells and the negative control (cells without treatment and infection) with the control florfenicol without AP. […] ANOVA y Fisher.
The effect of andrographolide on the antibiotic action of florfenicol, was corroborated by LDH in the supernatant in cells with different treatments showing the synergistic effect of andrographolide (AP) in the range of 0.125; 0.25 and 0.5 μg/mL of the antibiotic.

coho salmon [4] = assay: Quality of the fish at harvest time; format: in vivo
Text: as §1
Table 3 compares the quality of the fish at harvest time. Premium Quality (“PRM”) fish have an absence of skin lesions and adequate body weight. A total of 332,315 fish were treated with florfenicol+andrographolide (“Impares Nat Control”) and 301,334 fish were treated with florfenicol alone (“Pares Normal”).

[5] = andrographolide co-fed with florfenicol, coho salmon
[6] = absence of skin lesions and adequate body weight
[7] = florfenicol combined with the andrographolide (AP1 or AP2)

Q: With C=C1CC[C@@H]2[C@](C)(CO)[C@H](O)CC[C@@]2(C)[C@@H]1C/C=C1/C(=O)OC[C@H]1O [andrographolide] as the compound, how does the “in vivo metabolism and clearance of florfenicol” value [1, 5] read?
A: The value was “hastens the in vivo metabolism and clearance of florfenicol”.

Q: What about the “antibiotic (florfenicol) concentration in plasma” value [2, 5] of the same compound?
A: The value was “increases antibiotic concentration in plasma”.

Q: What about the “average plasma florfenicol levels” value ([2]; fish treated with florfenicol and fed andrographolide vs florfenicol alone, 5 and 12 days) of the same compound?
A: The value was “higher average plasma florfenicol levels”.

Q: What about the mortality (coho salmon [3]; andrographolide with florfenicol vs florfenicol alone) of the same compound?
A: Its mortality is “decreases mortality”.

Q: Which “florfenicol (residue)” value ([1]; Cage No. 101, andrographolide diet, Test Report No. 44.217-22) does the source give for CS(=O)(=O)c1ccc([C@@H](O)[C@@H](CF)NC(=O)C(Cl)Cl)cc1 [florfenicol] here?
A: Its value is under 24.

Q: What about the “florfenicol (residue)” value ([1]; Cage No. 102, normal diet (no andrographolide), Test Report No. 44.218-22) of the same compound?
A: The value was 270 and 363 and 502.

Q: And the “florfenicol (residue)” value ([1]; Cage No. 103, andrographolide diet, Test Report No. 44.215-22)?
A: The value was under 24.

Q: What about the “residues of florfenicol in fish muscle” value ([1]; fish receiving andrographolide, various days post-treatment) of the same compound?
A: Its value is under 24.

Q: What about the “minimum inhibitory concentration of florfenicol” value (from here on “minimum inhibitory concentration”) (P. salmonis; without andrographolide) of the same compound?
A: The value was 0.5 µg/mL.

Q: And the “Cause of death: Mechanical damage” value (coho salmon [3]; Example 3)?
A: The value was 41.6 % of Total Deaths.

Q: What about the “Cause of death: No apparent cause” value (coho salmon [3]; Example 3) of the same compound?
A: The value was 9.3 % of Total Deaths.

Q: What about the “Cause of death: Runt (very small) fish” value (coho salmon [3]; Example 3) of the same compound?
A: The value was 0 % of Total Deaths.

Q: What about the “Cause of death: SRS (skin lesions)” value (coho salmon [3]; Example 3) of the same compound?
A: The value was 25.0 % of Total Deaths.

Q: And the “Time of death: In holding pen before harvesting” value (coho salmon [3]; Example 3)?
A: Its value is 10.9 % of Total Deaths.

Q: What about the “FA fish, %” value (coho salmon [4]) of the same compound?
A: Its value is 4.65%.

Q: What about the “FA fish, No” value (coho salmon [4]) of the same compound?
A: Its value is 14012 No.

Q: What about the “GA1 fish, %” value (coho salmon [4]) of the same compound?
A: Its value is 17.87%.

Q: And the “GA1 fish, No” value (coho salmon [4])?
A: Its value is 53835 No.

Q: And the “GA2 fish, %” value (coho salmon [4])?
A: Its value is 1.426%.

Q: And the “GA2 fish, No” value (coho salmon [4])?
A: The value was 4297 No.

Q: What about the “percentage of Premium Quality fish” value (coho salmon [4]) of the same compound?
A: The value was 76.1%.

Q: And the “PRM (Premium Quality) fish, %” value (coho salmon [4]; [6])?
A: Its value is 76.06%.

Q: What about the “PRM (Premium Quality) fish, No” value (coho salmon [4]; [6]) of the same compound?
A: Its value is 229190 No.

Q: For C=C1CCC2[C@](C)(CO)[C@H](O)CC[C@@]2(C)[C@@H]1CC(C1C(=O)OC[C@H]1O)S(=O)(=O)[O-].[Na+] (stereo partly shown) [AP1, andrographolide sodium bisulfite], which “minimum inhibitory concentration” value (P. salmonis; [7]) is on record?
A: Its value is 0.25 µg/mL.

Q: With andrographolide sulphonate [AP2] as the compound, how does the “minimum inhibitory concentration” value (P. salmonis; [7]) read?
A: Its value is 0.25 µg/mL.
